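Following 48 hours of exposure in 96-well plates, responses at five concentrations were used to interpolate endpoints linearly. GI50 = concentration required for 50% inhibition of growth. TGI denotes the concentration required for complete inhibition of growth.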
Each molecule was assayed on SK-MEL-5 melanoma (assay: NCI anticancer screen, dose series, 48 h).

Row | Compound | TGI [µM] | GI50 [µM]
1 | O=S1(=O)c2ccccc2N=C(c2ccccc2Cl)CC1c1ccc(F)cc1 (stereo not given) | 31.4 | –
2 | CCN(CC)Cc1cc(Nc2c3ccccc3nc3cc(Cl)ccc23)ccc1O | 3.16 | 1.75
3 | CC1=CC(=O)NP(=O)(C23CC4CC(CC(C4)C2)C3)N1 (stereo not given) | > 100 | –
4 | O=c1[nH]cc(C(F)(C(F)(F)F)C(F)(F)F)c(=O)[nH]1 | > 100 | –
5 | COc1ccc2c(c1)c1c3n2CCNN=C3CCC1 | > 100 | –
6 | CC(=O)[C-](C(C)=O)c1ccccc1.CC(=O)[C-](C(C)=O)c1ccccc1.CC(=O)[C-](C(C)=O)c1ccccc1.[Cl-].[Zr+4] | > 100 | > 100
7 | CC(C)N1C(C)[C@@H](c2ccccc2)O[P@]1(=O)CC1=CCCCC1 (stereo not given in full) | > 100 | –
8 | O=C(O)CCc1nc(-c2ccccc2-n2cccc2)no1 | > 100 | –
9 | COC(=O)C(=O)C(C(=O)C(=O)Nc1cc(Cl)c(Cl)cc1Cl)c1nc2ccc([N+](=O)[O-])cc2[nH]c1=O (stereo not given) | > 100 | –
10 | COc1ccc(NC(=O)C2C(=O)N(c3ccc(OC)cc3)C(=O)/C2=N\NC(N)=O)cc1 (stereo not given) | 37.7 | –
11 | C/C(=N\NS(=O)(=O)c1ccc([N+](=O)[O-])cc1)c1ccc[n+]([O-])n1 | 5.97 | –
12 | S=c1c2ccccc2c(=S)n2n1CC=CC2 | > 100 | –
13 | CC(C)(C)Sc1nnc(SC(C)(C)C)c2c(=O)[nH]nc(SC(C)(C)C)c12 | 17.2 | –
14 | CCCCNC1=C(C(=O)OCC)/C(=N/NC(=O)c2ccccc2O)CO1 | > 100 | –
15 | O=CCCCC(Sc1ccccc1)Sc1ccccc1 | 30.8 | –
16 | COc1ccc(C)cc1C1CCC(=O)O1 (stereo not given) | > 100 | –

Row | Compound | TGI [µM] | GI50 [µM]
17 | Cc1ccc2nc(NC(=O)C(=O)CC(=O)c3cccc4ccccc34)sc2c1 | 55.4 | –
18 | O=C1CCC(=O)c2sccc2N1 | > 100 | –
19 | CCCCCCCCCCCCCCCCCC(=O)NCC(COP(=O)(O)O)OCC (stereo not given) | > 100 | –
20 | CCCCCCCCCCSC(=N)N | 4.71 | 2.12
21 | Cn1nc(-c2ccccc2)c(C(=O)/C=C/c2ccc(Cl)cc2)c(N2CCCC2)c1=O | 18.6 | –
22 | Cc1cc2nc(-c3c(F)cccc3Cl)n(Cc3c(F)cccc3Cl)c2cc1C | 23.6 | 11.2
23 | O=C1C=Cc2ncccc2C1=O | 28.2 | –
24 | C/C(CC(=O)Nc1cccc([N+](=O)[O-])c1)=N\NC(=O)CC#N | > 100 | –
25 | [CH3][Sn]1([CH3])[O]CC(COc2cc(Cl)c(Cl)cc2Cl)[O]1 (stereo not given) | > 100 | 49.8
26 | O=C(/C=C/c1ccccc1)CCC1C(=O)NC(=S)NC1=O | > 100 | –
27 | CCc1cc(Cc2ccc(C)c(NC(=O)C(=O)C3C(=O)NC(=O)NC3=O)c2CC)cc(C)c1NC(=O)C(=O)C1C(=O)NC(=O)NC1=O | > 100 | –
28 | CC(=O)OC(=O)O/C=C\CCl | > 100 | –
29 | CC(=O)c1c2c(cc3c1CC1(C3)Cc3cc4c(c(C(=O)O)c3C1)CCC4)CCC2 (stereo not given) | > 100 | –
30 | Cc1ccc(/C=N/NS(=O)(=O)c2ccccc2)c(C)c1 | > 100 | –
31 | C#CCOCn1cnc2ncnc(N)c21 | > 100 | –
32 | Cc1noc(/N=C2\C=C(Nc3onc(C)c3C)C(=O)c3ccccc32)c1C | > 100 | –

The molecules below were run on HL-60(TB) leukemia (assay: NCI anticancer screen, dose series, 48 h).

Row | Compound | TGI [µM] | GI50 [µM]
33 | O=S1(=O)c2ccccc2N=C(c2ccccc2Cl)CC1c1ccc(F)cc1 (stereo not given) | 45.4 | –
34 | CC1=CC(=O)NP(=O)(C23CC4CC(CC(C4)C2)C3)N1 (stereo not given) | > 100 | –
35 | O=c1[nH]cc(C(F)(C(F)(F)F)C(F)(F)F)c(=O)[nH]1 | > 100 | –
36 | COc1ccc2c(c1)c1c3n2CCNN=C3CCC1 | > 71.4 | –
37 | CC(=O)[C-](C(C)=O)c1ccccc1.CC(=O)[C-](C(C)=O)c1ccccc1.CC(=O)[C-](C(C)=O)c1ccccc1.[Cl-].[Zr+4] | > 100 | > 100
38 | CC(C)N1C(C)[C@@H](c2ccccc2)O[P@]1(=O)CC1=CCCCC1 (stereo not given in full) | 57.4 | –
39 | C/C(=N\NS(=O)(=O)c1ccc([N+](=O)[O-])cc1)c1ccc[n+]([O-])n1 | > 22.6 | –
40 | S=c1c2ccccc2c(=S)n2n1CC=CC2 | > 100 | –
41 | CC(C)(C)Sc1nnc(SC(C)(C)C)c2c(=O)[nH]nc(SC(C)(C)C)c12 | 16.1 | –
42 | CCCCNC1=C(C(=O)OCC)/C(=N/NC(=O)c2ccccc2O)CO1 | > 100 | –
43 | N#CC(C(=O)CCCC(=O)Nc1ccc(Cl)cc1Cl)c1ccc(Cl)cc1 (stereo not given) | > 100 | –
44 | O=CCCCC(Sc1ccccc1)Sc1ccccc1 | 78.3 | –
45 | COc1ccc(C)cc1C1CCC(=O)O1 (stereo not given) | > 100 | –
46 | Cc1ccc2nc(NC(=O)C(=O)CC(=O)c3cccc4ccccc34)sc2c1 | > 100 | –
47 | O=C1CCC(=O)c2sccc2N1 | > 100 | –
48 | CCCCCCCCCCCCCCCCCC(=O)NCC(COP(=O)(O)O)OCC (stereo not given) | > 100 | –
49 | Cn1nc(-c2ccccc2)c(C(=O)/C=C/c2ccc(Cl)cc2)c(N2CCCC2)c1=O | 4.97 | –
50 | O=C1C=Cc2ncccc2C1=O | 36.1 | –
51 | C/C(CC(=O)Nc1cccc([N+](=O)[O-])c1)=N\NC(=O)CC#N | > 100 | –
52 | [CH3][Sn]1([CH3])[O]CC(COc2cc(Cl)c(Cl)cc2Cl)[O]1 (stereo not given) | > 100 | > 100
53 | CCc1cc(Cc2ccc(C)c(NC(=O)C(=O)C3C(=O)NC(=O)NC3=O)c2CC)cc(C)c1NC(=O)C(=O)C1C(=O)NC(=O)NC1=O | > 100 | –
54 | CC(=O)OC(=O)O/C=C\CCl | > 100 | –
55 | CC(=O)c1c2c(cc3c1CC1(C3)Cc3cc4c(c(C(=O)O)c3C1)CCC4)CCC2 (stereo not given) | 35.6 | –
56 | Cc1ccc(/C=N/NS(=O)(=O)c2ccccc2)c(C)c1 | > 100 | –
57 | Cc1noc(/N=C2\C=C(Nc3onc(C)c3C)C(=O)c3ccccc32)c1C | > 100 | –

These molecules were tested on NCI-H522 lung (assay: NCI anticancer screen, dose series, 48 h).

Row | Compound | TGI [µM] | GI50 [µM]
58 | O=S1(=O)c2ccccc2N=C(c2ccccc2Cl)CC1c1ccc(F)cc1 (stereo not given) | 26.9 | –
59 | CCN(CC)Cc1cc(Nc2c3ccccc3nc3cc(Cl)ccc23)ccc1O | 2.56 | 1.12
60 | CC1=CC(=O)NP(=O)(C23CC4CC(CC(C4)C2)C3)N1 (stereo not given) | > 100 | –
61 | O=c1[nH]cc(C(F)(C(F)(F)F)C(F)(F)F)c(=O)[nH]1 | > 100 | –
62 | COc1ccc2c(c1)c1c3n2CCNN=C3CCC1 | > 100 | –
63 | CC(=O)[C-](C(C)=O)c1ccccc1.CC(=O)[C-](C(C)=O)c1ccccc1.CC(=O)[C-](C(C)=O)c1ccccc1.[Cl-].[Zr+4] | > 100 | > 100
64 | CC(C)N1C(C)[C@@H](c2ccccc2)O[P@]1(=O)CC1=CCCCC1 (stereo not given in full) | > 100 | –
65 | O=C(O)CCc1nc(-c2ccccc2-n2cccc2)no1 | > 100 | –
66 | COC(=O)C(=O)C(C(=O)C(=O)Nc1cc(Cl)c(Cl)cc1Cl)c1nc2ccc([N+](=O)[O-])cc2[nH]c1=O (stereo not given) | > 100 | –
67 | COc1ccc(NC(=O)C2C(=O)N(c3ccc(OC)cc3)C(=O)/C2=N\NC(N)=O)cc1 (stereo not given) | > 100 | –
68 | C/C(=N\NS(=O)(=O)c1ccc([N+](=O)[O-])cc1)c1ccc[n+]([O-])n1 | 4.51 | –
69 | S=c1c2ccccc2c(=S)n2n1CC=CC2 | > 100 | –
70 | CC(C)(C)Sc1nnc(SC(C)(C)C)c2c(=O)[nH]nc(SC(C)(C)C)c12 | 14.2 | –
71 | CCCCNC1=C(C(=O)OCC)/C(=N/NC(=O)c2ccccc2O)CO1 | 57.8 | –

Reference: PubChem BioAssay (NCI)
